Reference: patent publication US11357774B2, “Use of a quinoline sulfonyl compound for treatment of inflammation, inflammatory disorders, autoimmune disorders and malaria” (priority 2019, dated 2022)
Like-named read-outs stand apart in the source and are kept apart here.

Legend:
[1] = test system: THP-1 monocytic cells; test: Sulforhodamine B (SRB) assay, IC50 on THP-1 cells; assay type: cell-based, human; conditions: read-out: IC50
Experimental: (§1) The sulforhodamine B (SRB) assay^21 was used to determine the drug concentration that half of the cell growth/viability is inhibited (IC50). Cells were cultured in 96-well plates, with 5,000 cells in 100 μL of culture medium per well. The rest of the protocol was the same as described previously^22,23.
(§2) Data shown in Table 1 are IC50 values of VR23 and other compounds, which were determined using sulforhodamine B (SRB) assays on immunologically relevant cells (THP-1, SW-982 and PBMC). […] Two well-known proteasome inhibitors, BTZ and CFZ, were included for comparison since VR23 is also a proteasome inhibitor, albeit targeting different subunits^2. The widely used anti-inflammatory DEX was included, also for comparison.
(§3) THP-1, SW982 and PBMC cells (5,000 cells/well) were treated with each compound for 48 hours. The IC50, the drug concentration reducing cell growth/viability by 50%, was determined by a dose-response four-parameter curve (generated with GraphPad Prism V. 4.02) formed by 10 two-fold dilutions (n=3).

[2] = test system: PBMC cells; test: Sulforhodamine B (SRB) assay, IC50 on PBMC; assay type: cell-based, human; conditions: read-out: IC50
Experimental: as §1, §2, §3

[3] = test system: IL-1β, TNF-α, IL-6 and IL-8 secretion in THP-1 cells; test: Cytokine secretion in LPS-stimulated THP-1 cells (ELISA); assay type: cell-based, human; conditions: THP-1, LPS 5 μg/mL, 6 hours; VR23 0.5-6 μM, BTZ 6 nM, CFZ 1 nM, DEX 2 μM
Experimental: For comparison, BTZ (6 nM), CFZ (1 nM), and DEX (2 μM) were also included. *, **, and *** are p<0.05, p<0.01, and p<0.001, respectively, which denote a significant difference from the LPS-only group. The mean±SEM (n=3) values were determined by a Dunnett's test.
(§4) The enzyme-linked immunosorbent assay (ELISA) is a quantitative measurement based on sandwich-based enzyme linking, using a protein-specific capture antibody to determine the levels of single or multiple chemokines and cytokines.
Data shown in FIG. 11 are the results of experiments carried out to investigate VR23's effect on the levels of inflammatory cytokines. […] For comparison, BTZ (6 nM), CFZ (1 nM) and DEX (2 μM) were also included. The levels of cytokine secreted in cell culture supernatants were measured by a single-analyte ELISA. The IC50 value of VR23 is 3 μM and the concentrations of BTZ, CFZ and DEX used are their respective IC50 values.

[4] = test system: IL-8 secretion in THP-1 cells; test: IL-8 secretion in TNF-α-stimulated THP-1 cells (ELISA); assay type: cell-based, human; conditions: THP-1, TNF-α 10 ng/mL, 6 hours; VR23 at IC50 concentration (between 2 and 4 μM), BTZ 6 nM, CFZ 1 nM
Experimental: For comparison, BTZ (6 nM), CFZ (1 nM), and DEX (2 μM) were also included. *** is p<0.001, which denotes a significant difference from the TNF-α-only group, determined by a Dunnett's test. The values presented are the mean±SEM (n=3).
as §4
The data in FIG. 12 show the levels of IL-8 secreted in the THP-1 culture medium in response to TNF-α alone (10 ng/mL) or in combination with varying concentrations (0.5, 1.0, 2, 4 or 6 μM) of VR23. For comparison, BTZ (6 nM), CFZ (1 nM) and DEX (2 μM) were also included. The measurement time was 6-hour post-stimulation. The measurement was carried out with a single-analyte ELISA.

[5] = test system: IL-6 and TNF-α secretion in human PBMC; test: IL-6 and TNF-α in PHA-p-stimulated human PBMC (ELISA); assay type: cell-based; conditions: PHA-p 10 μg/mL, 6 hours
Experimental: (§5) The values presented are the mean±SEM (n=2).
as §4
Data in FIG. 14 show the levels of IL-6 (upper plot) and TNF-α (lower plot) in human PBMC (1×10^6/mL cells) stimulated with 10 μg/mL phytohemagglutinin-p (PHA-p) (10 μg/mL) for 6 hours, in the absence (control) or presence of varying concentrations of VR23 (0.38, 0.75, 1.5, 3 or 6 μM) or BTZ (6.25, 12.5, 25 or 50 nM). The measurement was carried out with a single-analyte ELISA.

[6] = test system: SW-982 synovial cell line; test: Sulforhodamine B (SRB) assay, IC50 on SW-982 cells; assay type: cell-based; conditions: Homo sapiens; SW982 cells, 48 hours, SRB; read-out: IC50
Experimental: as §1, §2, §3

[7] = test system: IL-6 secretion in SW-982 synovial cells; test: IL-6 secretion in IL-1β-stimulated SW-982 synovial cells (ELISA); assay type: cell-based, human; conditions: SW-982, IL-1β 1 ng/mL, 6 hours; VR23 10 μM, HCQ 60 μM
Experimental: The mean±SEM (n=2) values were determined by a Dunnett's test.
as §4
The measurement was carried out with a single-analyte ELISA. […] While not wishing to be limited by theory, cytokine IL-6 is strongly implicated to the progress of rheumatoid arthritis^29.

[8] = test system: human fibroblast-like synoviocytes from rheumatoid arthritis patients (HFLS-RA); test: Viability test, HFLS-RA cells; assay type: cell-based; conditions: 6 hours, IL-1β 10 ng/mL, VR23 1.25-5.0 μM, HCQ 7.5-30 μM
Experimental: The values presented are the mean±SEM (n=3).
The CCK-8 assay was used to count viable cells under the various treatment conditions. Briefly, cells were cultured in 11 columns of a 96-well clustered plate, with 5,000 cells in 100 μL of culture medium per well, excluding one column for a media-only control. The plate was incubated overnight at 37° C. in the humidified conditions, followed by treatment with test compounds diluted in the culture medium (10 μL). Each column was treated with a different condition so that each treatment could have 8 repeats. […] The absorbance was measured using an automatic plate reader (Synergy H4 Hybrid Multi-Mode Microplate Reader, BioTek, Montreal, Canada) at 450 nm wavelength. The cell viability of each treatment sample was determined by using the following equation (%)=(Abstrtmt-Absmedia)/(AbsuT-Absmedia)*100, where Abstrtmt is the absorbance value of cells with the various treatment conditions; Absmedia is the absorbance of the well containing media only; AbsuT is the absorbance of the wells with untreated cells.
This finding was extended to human cells relevant to autoimmune diseases. […] Cytokine levels in cell culture supernatants were determined by a single-analyte ELISA. […] The cytokine secretion was measured in cell culture supernatants by a single-analyte ELISA.

[9] = test system: IL-6 secretion in HFLS-RA cells; test: IL-6 secretion in stimulated HFLS-RA cells (ELISA); assay type: cell-based, human; conditions: HFLS-RA, IL-1β 10 ng/mL, 6 hours; VR23 2.5-10 μM, HCQ 15 or 30 μM
Experimental: (§6) The mean±SEM (n=3) values were determined by a Dunnett's test.
as §5, §4
(§7) This finding was extended to human cells relevant to autoimmune diseases. Human fibroblast-like synoviocytes (HFLS) are present in the synovial fluid of joint capsules and produce harmful molecules that contribute to joint destruction and the exacerbation of the disease in rheumatoid arthritis patients. […] The cells were then stimulated with IL-1β (FIG. 16) or LPS (FIG. 17), in the absence (control; IL-1β only) or presence of VR23 or HCQ. HCQ was included for comparison because it is often used to treat rheumatoid arthritis. […] For “VR23 only” samples, 5 μM VR23 was used. Fifty thousand HFLS cells per mL were used for the experiment. Cytokine levels in cell culture supernatants were determined by a single-analyte ELISA. […] Fifty thousand HFLS cells per mL were used for the experiment. The cytokine secretion was measured in cell culture supernatants by a single-analyte ELISA.

[10] = test system: IL-6 secretion in HFLS-N cells; test: IL-6 secretion in stimulated HFLS-N cells (ELISA); assay type: cell-based, human; conditions: IL-1β 10 ng/mL, 6 hours, VR23 2.5-10 μM, HCQ 15 or 30 μM
Experimental: as §6, §5, §4, §7

IC50 ([1]; 48 hours) [nM] | IC50 ([1]; Homo sapiens, THP-1, 48 h) [nM] | IC50 [6] [nM] | Structure (SMILES) | IC50 ([2]; 48 hours) [nM] | IC50 ([2]; Homo sapiens, 48 h) [nM] | levels of inflammatory cytokines IL-1β, TNF-α, IL-6, IL-8 [3] | IL-8 secretion [4] | PHA-induced IL-6 ([5]; VR23 1.5 μM, BTZ 6 nM) | PHA-induced TNF-α ([5]; VR23 3.0 μM, BTZ 4× the IC50 dose) | secretion of IL-6 [7] | cell viability [8] | IL-6 secretion, dose dependence [9] | IL-6 secretion, dose dependence [10]
5.91 ± 0.34 | 6 |  | CC(C)C[C@H](NC(=O)[C@H](Cc1ccccc1)NC(=O)c1cnccn1)B(O)O [BTZ, bortezomib, reference compound] | 5.86 ± 0.3 | 6 | do not | substantially reduced IL-8 | reduced the level of IL-6 | largely ineffective in reducing the level of TNF-α |  |  |  | 
1.01 ± 0.11 | 1 |  | CC(C)C[C@H](NC(=O)[C@H](CCc1ccccc1)NC(=O)CN1CCOCC1)C(=O)N[C@@H](Cc1ccccc1)C(=O)N[C@@H](CC(C)C)C(=O)[C@@]1(C)CO1 [CFZ, carfilzomib, reference compound] |  |  | do not | not effective at all |  |  |  |  |  | 
2070 ± 67 | 2000 |  | C[C@@H]1C[C@H]2[C@@H]3CCC4=CC(=O)C=C[C@]4(C)[C@@]3(F)[C@@H](O)C[C@]2(C)[C@@]1(O)C(=O)CO [DEX, Dexamethasone] |  |  |  |  |  |  |  |  |  | 
 |  | 28200 | CCN(CCO)CCCC(C)Nc1ccnc2cc(Cl)ccc12 (stereo not shown) [HCQ, hydroxychloroquine, reference compound] |  |  |  |  |  |  | comparable | none of the conditions examined significantly affected the viability | decreases in a dose dependent manner | decreases in a dose dependent manner
